Experimental data: US12605396B2, “Methods of treating mastitis with an orthosomycin antimicrobial compound” (Intervet Inc., priority 2020, dated 2026)
Converted amounts (≈) assume the structure as drawn. “And” between values parts separate entries of the source, which are not always exact repeats. Equal entries are not always repeated. “Also recorded” adds a separate entry of the source. Where two headings read alike, the source gives them in different places.

How the values were obtained:
S. aureus [1] = assay: MIC in full cream UHT milk with alamar Blue; type: cell-based, Staphylococcus aureus; settings: for S. aureus MIC, milk: individual S. aureus isolates, in µg/mL; for Distribution of MIC values: isolates with MIC 0.125 μg/ml / Distribution of MIC values: isolates with MIC 0.25 μg/ml / Distribution of MIC values: isolates with MIC 0.5 μg/ml / Distribution of MIC values: isolates with MIC 1 μg/ml / Distribution of MIC values: isolates with MIC 2 μg/ml / Distribution of MIC values: isolates with MIC 4 μg/ml / Distribution of MIC values: isolates with MIC 8 μg/ml / Distribution of MIC values: isolates with MIC 16 μg/ml / Distribution of MIC values: isolates with MIC 32 μg/ml / Distribution of MIC values: isolates with MIC 64 μg/ml / Distribution of MIC values: isolates with MIC >64 μg/ml / Distribution of MIC values: isolates with MIC ≤0.063 μg/ml / MIC90: S. aureus (n = 20)
Procedure: (§1) For MIC determination in milk, the in vitro activity was determined by measuring the minimum inhibitory concentrations (MIC) according to CLSI document VET01-A4 [1] using full cream UHT milk as test medium. About 2 h before the end of the incubation 10 μL of alamar Blue® was added to each well of the microdilution trays, resulting in a final concentration of 10% of alamar Blue®. Blue color of the medium indicated no living cells (no bacterial growth) red/pink to white color of the medium indicated living cells (bacterial growth). The MIC results were interpreted according to the CLSI document VET01-S3 [2].

S. aureus [2] = assay: MIC in bacteriological broth (CLSI VET01-A4); type: cell-based, Staphylococcus aureus; settings: for S. aureus MIC, CAMHB: bacteriological broth (CAMHB), individual S. aureus isolates; for Activity against S. aureus isolates in bacteriological broth: different S. aureus isolates
Procedure: (§2) Minimal inhibitory concentrations (MIC) were determined in bacteriological broth according to Clinical and Laboratory Standard Institute (CLSI) guideline VET01-A4 [1]. The MIC results were interpreted according to the CLSI document VET01-S3 [2].

Strep. dysgalactiae = assay: MIC in bacteriological broth (CLSI VET01-A4); type: cell-based, Streptococcus dysgalactiae
Procedure: as §2

S. uberis = assay: MIC in bacteriological broth (CLSI VET01-A4); type: cell-based, Streptococcus uberis
Procedure: as §2

[3] = system: mastitis-causing pathogens; assay: Antimicrobial activity against mastitis-causing pathogens (overall statement); type: cell-based; settings: broth-dilution assay and milk
Procedure: as §2, §1

Strep. agalactiae = assay: MIC in bacteriological broth (CLSI VET01-A4); type: cell-based, Streptococcus agalactiae
Procedure: as §2

Truep. pyogenes = assay: MIC in bacteriological broth (CLSI VET01-A4); type: cell-based, Trueperella pyogenes
Procedure: as §2

coa-neg Staph. = assay: MIC in bacteriological broth (CLSI VET01-A4); type: cell-based, coagulase-negative staphylococci
Procedure: as §2

[4] = broth, of 15 Strep. dysgalactiae isolates
[5] = broth, of 15 Strep. uberis isolates
[6] = broth, of 15 Strep. agalactiae isolates
[7] = broth, of 15 coa-neg Staph. isolates
[8] = broth, of 15 Staph. aureus isolates

CC[C@@H](C(=O)[C@@H](C)[C@@H](O)[C@H](C)CCc1ccc(C)c(O)c1C(=O)O)[C@H]1O[C@](CC)([C@H]2CC[C@](O)(CC)[C@H](C)O2)C[C@@H]1C [Lasalocid, lasalocid]
Activity in milk (S. aureus [1]): no activity; also recorded: lost any activity
S. aureus MIC, milk (S. aureus [1]): >32
S. aureus MIC, CAMHB (S. aureus [2]): 0.25 (3×) and 1 (4×) and 0.5
Activity against S. aureus isolates in bacteriological broth (S. aureus [2]; bacteriological broth): active

CC[C@@]1([C@@H]2O[C@@H]([C@H]3O[C@@](O)(CO)[C@H](C)C[C@@H]3C)C[C@@H]2C)CC[C@H]([C@]2(C)CC[C@]3(C[C@H](O)[C@@H](C)[C@@H]([C@@H](C)[C@@H](OC)[C@H](C)C(=O)O)O3)O2)O1 [Monensin, monensin]
Activity in milk (S. aureus [1]): no activity; also recorded: lost any activity
S. aureus MIC, milk (S. aureus [1]): >32
S. aureus MIC, CAMHB (S. aureus [2]): 0.25 (2×) and 2 (6×)
Activity against S. aureus isolates in bacteriological broth (S. aureus [2]; bacteriological broth): active

CC1(C)S[C@@H]2[C@H](NC(=O)Cc3ccccc3)C(=O)N2[C@H]1C(=O)O [Penicillin G, penicillin G]
Distribution of MIC values: isolates with MIC 0.125 μg/ml (S. aureus [1]): 0
Distribution of MIC values: isolates with MIC 0.25 μg/ml (S. aureus [1]): 0
Distribution of MIC values: isolates with MIC 0.5 μg/ml (S. aureus [1]): 0
Distribution of MIC values: isolates with MIC 1 μg/ml (S. aureus [1]): 1
Distribution of MIC values: isolates with MIC 2 μg/ml (S. aureus [1]): 0
Distribution of MIC values: isolates with MIC 4 μg/ml (S. aureus [1]): 0
Distribution of MIC values: isolates with MIC 8 μg/ml (S. aureus [1]): 2
Distribution of MIC values: isolates with MIC 16 μg/ml (S. aureus [1]): 1
Distribution of MIC values: isolates with MIC 32 μg/ml (S. aureus [1]): 1
Distribution of MIC values: isolates with MIC 64 μg/ml (S. aureus [1]): 0
Distribution of MIC values: isolates with MIC >64 μg/ml (S. aureus [1]): 1
Distribution of MIC values: isolates with MIC ≤0.063 μg/ml (S. aureus [1]): 14
MIC90 (S. aureus [1]): 16 µg/mL (≈ 47.8 µM)

CC[C@@H](C(=O)[C@@H](C)[C@@H](O)[C@H](C)[C@@H]1O[C@@H]([C@@H](CC)C(=O)O)CC[C@@H]1C)[C@H]1O[C@]2(C=C[C@@H](O)[C@]3(CC[C@@](C)([C@H]4CC[C@](O)(CC)[C@H](C)O4)O3)O2)[C@H](C)C[C@@H]1C [Salinomycin, salinomycin]
Activity in milk (S. aureus [1]): no activity; also recorded: lost any activity
S. aureus MIC, milk (S. aureus [1]): >32
S. aureus MIC, CAMHB (S. aureus [2]): 0.25 (2×) and 1 and 0.5 (5×)
Activity against S. aureus isolates in bacteriological broth (S. aureus [2]; bacteriological broth): active

COC[C@H]1O[C@@H](O[C@@H]2OC[C@@H]3O[C@@]4(OC[C@@H](OC(=O)c5c(C)cc(O)cc5O)[C@@H]5OCO[C@H]54)O[C@H]3[C@H]2O)[C@@H](OC)[C@@H](O)C1O[C@@H]1O[C@H](C)[C@H](OC)[C@H](OC2O[C@H](C)[C@H]3O[C@]4(C[C@@H](O)[C@H](O[C@H]5C[C@@H](O[C@H]6C[C@](C)([N+](=O)[O-])[C@@H](OC)[C@H](C)O6)[C@H](OC(=O)c6c(C)c(Cl)c(O)c(Cl)c6OC)[C@@H](C)O5)[C@@H](C)O4)O[C@]3(C)[C@@H]2O)[C@H]1O (stereo partly shown) [evernimicin]
MIC50 (Strep. dysgalactiae; Streptococcus dysgalactiae, bacteriological broth, 15 Strep. dysgalactiae isolates tested, read-out: MIC50): 0.125 µg/mL (≈ 0.0766 µM)
MIC90 (Strep. dysgalactiae; Streptococcus dysgalactiae, bacteriological broth, 15 Strep. dysgalactiae isolates tested, read-out: MIC90): 0.25 µg/mL (≈ 0.153 µM)
MIC (Strep. dysgalactiae; Streptococcus dysgalactiae, bacteriological broth, 15 Strep. dysgalactiae isolates tested, read-out: Maximum MIC): 0.25 µg/mL (≈ 0.153 µM)
MIC (Strep. dysgalactiae; Streptococcus dysgalactiae, bacteriological broth, 15 Strep. dysgalactiae isolates tested, read-out: Minimum MIC): 0.125 µg/mL (≈ 0.0766 µM)
Number of isolates with MIC 0.125 μg/mL (Strep. dysgalactiae; [4]): 11
Number of isolates with MIC 0.25 μg/mL (Strep. dysgalactiae; [4]): 4
MIC50 (S. uberis; Streptococcus uberis, bacteriological broth, 15 Strep. uberis isolates tested, read-out: MIC50): 0.25 µg/mL (≈ 0.153 µM)
MIC90 (S. uberis; Streptococcus uberis, bacteriological broth, 15 Strep. uberis isolates tested, read-out: MIC90): 0.5 µg/mL (≈ 0.306 µM)
MIC (S. uberis; Streptococcus uberis, bacteriological broth, 15 Strep. uberis isolates tested, read-out: Maximum MIC): 0.5 µg/mL (≈ 0.306 µM)
MIC (S. uberis; Streptococcus uberis, bacteriological broth, 15 Strep. uberis isolates tested, read-out: Minimum MIC): 0.125 µg/mL (≈ 0.0766 µM)
Number of isolates with MIC 0.125 μg/mL (S. uberis; [5]): 2
Number of isolates with MIC 0.25 μg/mL (S. uberis; [5]): 10
Number of isolates with MIC 0.5 μg/mL (S. uberis; [5]): 3
Antimicrobial activity against mastitis-causing pathogens [3]: Good antimicrobial activity
MIC90 against S. aureus compared with MIC90 of penicillin G (S. aureus [1]): identical
Distribution of MIC values: isolates with MIC 0.125 μg/ml (S. aureus [1]): 0
Distribution of MIC values: isolates with MIC 0.25 μg/ml (S. aureus [1]): 0
Distribution of MIC values: isolates with MIC 0.5 μg/ml (S. aureus [1]): 0
Distribution of MIC values: isolates with MIC 1 μg/ml (S. aureus [1]): 0
Distribution of MIC values: isolates with MIC 2 μg/ml (S. aureus [1]): 0
Distribution of MIC values: isolates with MIC 4 μg/ml (S. aureus [1]): 4
Distribution of MIC values: isolates with MIC 8 μg/ml (S. aureus [1]): 11
Distribution of MIC values: isolates with MIC 16 μg/ml (S. aureus [1]): 5
Distribution of MIC values: isolates with MIC 32 μg/ml (S. aureus [1]): 0
Distribution of MIC values: isolates with MIC 64 μg/ml (S. aureus [1]): 0
Distribution of MIC values: isolates with MIC >64 μg/ml (S. aureus [1]): 0
Distribution of MIC values: isolates with MIC ≤0.063 μg/ml (S. aureus [1]): 0
MIC90 (S. aureus [1]; Staphylococcus aureus, read-out: MIC90): 16 µg/mL (≈ 9.81 µM)
MIC50 (Strep. agalactiae; Streptococcus agalactiae, bacteriological broth, 15 Strep. agalactiae isolates tested, read-out: MIC50): 0.125 µg/mL (≈ 0.0766 µM)
MIC90 (Strep. agalactiae; Streptococcus agalactiae, bacteriological broth, 15 Strep. agalactiae isolates tested, read-out: MIC90): 0.25 µg/mL (≈ 0.153 µM)
MIC (Strep. agalactiae; Streptococcus agalactiae, bacteriological broth, 15 Strep. agalactiae isolates tested, read-out: Maximum MIC): 0.25 µg/mL (≈ 0.153 µM)
MIC (Strep. agalactiae; Streptococcus agalactiae, bacteriological broth, 15 Strep. agalactiae isolates tested, read-out: Minimum MIC): 0.125 µg/mL (≈ 0.0766 µM)
Number of isolates with MIC 0.125 μg/mL (Strep. agalactiae; [6]): 12
Number of isolates with MIC 0.25 μg/mL (Strep. agalactiae; [6]): 3
MIC50 (Truep. pyogenes; Trueperella pyogenes, bacteriological broth, 15 Truep. pyogenes isolates tested, read-out: MIC50): ≤ 0.063 µg/mL
MIC90 (Truep. pyogenes; Trueperella pyogenes, bacteriological broth, 15 Truep. pyogenes isolates tested, read-out: MIC90): ≤ 0.063 µg/mL
MIC (Truep. pyogenes; Trueperella pyogenes, bacteriological broth, 15 Truep. pyogenes isolates tested, read-out: Maximum MIC): ≤ 0.063 µg/mL
MIC (Truep. pyogenes; Trueperella pyogenes, bacteriological broth, 15 Truep. pyogenes isolates tested, read-out: Minimum MIC): ≤ 0.063 µg/mL
Number of isolates with MIC ≤0.063 μg/mL (Truep. pyogenes; broth, of 15 Truep. pyogenes isolates): 15
MIC50 (coa-neg Staph.; bacteriological broth, 15 coa-neg Staph. isolates tested, read-out: MIC50): 0.5 µg/mL (≈ 0.306 µM)
MIC90 (coa-neg Staph.; bacteriological broth, 15 coa-neg Staph. isolates tested, read-out: MIC90): 1 µg/mL (≈ 0.613 µM)
MIC (coa-neg Staph.; bacteriological broth, 15 coa-neg Staph. isolates tested, read-out: Maximum MIC): 8 µg/mL (≈ 4.9 µM)
MIC (coa-neg Staph.; bacteriological broth, 15 coa-neg Staph. isolates tested, read-out: Minimum MIC): 0.25 µg/mL (≈ 0.153 µM)
Number of isolates with MIC 0.25 μg/mL (coa-neg Staph.; [7]): 6
Number of isolates with MIC 0.5 μg/mL (coa-neg Staph.; [7]): 6
Number of isolates with MIC 1 μg/mL (coa-neg Staph.; [7]): 2
Number of isolates with MIC 8 μg/mL (coa-neg Staph.; [7]): 1
MIC50 (S. aureus [2]; Staphylococcus aureus, bacteriological broth, 15 Staph. aureus isolates tested, read-out: MIC50): 0.5 µg/mL (≈ 0.306 µM)
MIC90 (S. aureus [2]; Staphylococcus aureus, bacteriological broth, 15 Staph. aureus isolates tested, read-out: MIC90): 0.5 µg/mL (≈ 0.306 µM)
MIC (S. aureus [2]; Staphylococcus aureus, bacteriological broth, 15 Staph. aureus isolates tested, read-out: Maximum MIC): 0.5 µg/mL (≈ 0.306 µM)
MIC (S. aureus [2]; Staphylococcus aureus, bacteriological broth, 15 Staph. aureus isolates tested, read-out: Minimum MIC): 0.125 µg/mL (≈ 0.0766 µM)
Number of isolates with MIC 0.125 μg/mL (S. aureus [2]; [8]): 1
Number of isolates with MIC 0.25 μg/mL (S. aureus [2]; [8]): 2
Number of isolates with MIC 0.5 μg/mL (S. aureus [2]; [8]): 12
